{
  "source": "patent US8802597B2",
  "about": "“Herbicidal pyrimidines” (E I du Pont de Nemours and Company, priority 2003, dated 2014)",
  "test_in_all_cases": "Test C pre/postemergence",
  "assay_type_in_all_cases": "in vivo",
  "key": {"[1]": {"system": "bermudagrass (Cynodon dactylon)", "settings": "Cynodon dactylon, read-out: Plant response rating, Bermudagrass; for pest or weed control at 250 g/ha: 250 g ai/ha; for pest or weed control at 500 g/ha: 500 g ai/ha", "how_it_was_run": "(§1)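 We sprayed seeded pots preemergence and 2–18 cm seedlings postemergence with test chemicals in a non-phytotoxic solvent mixture including surfactant. Greenhouse plants were visually compared with untreated controls at 12 to 14 days and scored 0 (no effect) to 100 (complete control).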"}, "[2]": {"system": "velvetleaf (Abutilon theophrasti)", "settings": "Abutilon theophrasti; for pest or weed control at 62 g/ha: 62 g ai/ha; for pest or weed control at 125 g/ha: 125 g ai/ha; for pest or weed control at 250 g/ha: 250 g ai/ha; for pest or weed control at 500 g/ha: 500 g ai/ha", "how_it_was_run": "as §1"}, "[3]": {"system": "lambsquarters (Chenopodium album)", "settings": "Chenopodium album; for pest or weed control at 62 g/ha: 62 g ai/ha; for pest or weed control at 125 g/ha: 125 g ai/ha; for pest or weed control at 250 g/ha: 250 g ai/ha; for pest or weed control at 500 g/ha: 500 g ai/ha", "how_it_was_run": "as §1"}, "[4]": {"system": "goosegrass (Eleusine indica)", "settings": "Eleusine indica; for pest or weed control at 62 g/ha: 62 g ai/ha; for pest or weed control at 125 g/ha: 125 g ai/ha; for pest or weed control at 250 g/ha: 250 g ai/ha; for pest or weed control at 500 g/ha: 500 g ai/ha", "how_it_was_run": "as §1"}, "[5]": {"system": "yellow nutsedge (Cyperus esculentus)", "settings": "Cyperus; for pest or weed control at 62 g/ha: 62 g ai/ha; for pest or weed control at 125 g/ha: 125 g ai/ha; for pest or weed control at 250 g/ha: 250 g ai/ha; for pest or weed control at 500 g/ha: 500 g ai/ha", "how_it_was_run": "as §1"}, "soybean (Glycine max)": {"system": "soybean (Glycine max)", "settings": "Glycine max; for plant injury at 62 g/ha: 62 g ai/ha; for plant injury at 125 g/ha: 125 g ai/ha; for plant injury at 250 g/ha: 250 g ai/ha; for plant injury at 500 g/ha: 500 g ai/ha", "how_it_was_run": "as §1"}, "[6]": {"settings": "post-emergence, Postemergence, scale 0 to 100"}, "[7]": {"settings": "pre-emergence, Preemergence, scale 0 to 100"}, "[8]": {"settings": "post-emergence, Postemergence, scale 0 to 100 (0 no effect, 100 complete control), read-out: Velvetleaf plant response rating"}, "[9]": {"settings": "post-emergence, Postemergence, scale 0 to 100, read-out: Plant response rating, Velvetleaf"}, "[10]": {"settings": "pre-emergence, Preemergence, scale 0 to 100, read-out: Plant response rating, Velvetleaf"}, "[11]": {"settings": "post-emergence, Postemergence, scale 0 to 100 (0 no effect, 100 complete control), read-out: Lambsquarters plant response rating"}, "[12]": {"settings": "post-emergence, Postemergence, scale 0 to 100, read-out: Plant response rating, Lambsquarters"}, "[13]": {"settings": "pre-emergence, Preemergence, scale 0 to 100, read-out: Plant response rating, Lambsquarters"}, "[14]": {"settings": "post-emergence, Postemergence, scale 0 to 100 (0 no effect, 100 complete control), read-out: Goosegrass plant response rating"}, "[15]": {"settings": "post-emergence, Postemergence, scale 0 to 100, read-out: Plant response rating, Goosegrass"}, "[16]": {"settings": "pre-emergence, Preemergence, scale 0 to 100, read-out: Plant response rating, Goosegrass"}, "[17]": {"settings": "post-emergence, Postemergence, scale 0 to 100 (0 no effect, 100 complete control), read-out: Nutsedge, Yellow plant response rating"}, "[18]": {"settings": "post-emergence, Postemergence, scale 0 to 100, read-out: Plant response rating, Nutsedge, Yellow"}, "[19]": {"settings": "pre-emergence, Preemergence, scale 0 to 100, read-out: Plant response rating, Nutsedge, Yellow"}, "[20]": {"settings": "post-emergence, Postemergence, scale 0 to 100 (0 no effect, 100 complete control), read-out: Soybean plant response rating"}, "[21]": {"settings": "post-emergence, Postemergence, scale 0 to 100, read-out: Plant response rating, Soybean"}, "[22]": {"settings": "pre-emergence, Preemergence, scale 0 to 100, read-out: Plant response rating, Soybean"}},
  "note": "Read-outs that look alike come from different tables or passages of the source.",
  "data": [
    {"smiles": "CNc1nc(C2CC2)nc(C(=O)OC)c1Br", "note": "[Compound 5]", "values": [
      {"measurement": "pest or weed control at 250 g/ha", "setting": "[1]; [6]", "value": 70, "unit": "%"},
      {"measurement": "pest or weed control at 500 g/ha", "setting": "[1]; [6]", "value": 80, "unit": "%"},
      {"measurement": "pest or weed control at 62 g/ha", "setting": "[1]; pre-emergence, Preemergence, 62 g ai/ha, scale 0 to 100, 0 no effect, 100 complete control", "value": 0, "unit": "%"},
      {"measurement": "pest or weed control at 125 g/ha", "setting": "[1]; pre-emergence, Preemergence, 125 g ai/ha, scale 0 to 100", "value": 0, "unit": "%"},
      {"measurement": "pest or weed control at 250 g/ha", "setting": "[1]; [7]", "value": 30, "unit": "%"},
      {"measurement": "pest or weed control at 500 g/ha", "setting": "[1]; [7]", "value": 70, "unit": "%"},
      {"measurement": "pest or weed control at 62 g/ha", "setting": "[2]; [8]", "value": 55, "unit": "%"},
      {"measurement": "pest or weed control at 125 g/ha", "setting": "[2]; [8]", "value": 90, "unit": "%"},
      {"measurement": "pest or weed control at 250 g/ha", "setting": "[2]; [9]", "value": 90, "unit": "%"},
      {"measurement": "pest or weed control at 500 g/ha", "setting": "[2]; [9]", "value": 95, "unit": "%"},
      {"measurement": "pest or weed control at 62 g/ha", "setting": "[2]; pre-emergence, Preemergence, scale 0 to 100, 0 no effect, 100 complete control, read-out: Plant response rating, Velvetleaf", "value": 85, "unit": "%"},
      {"measurement": "pest or weed control at 125 g/ha", "setting": "[2]; [10]", "value": 85, "unit": "%"},
      {"measurement": "pest or weed control at 250 g/ha", "setting": "[2]; [10]", "value": 90, "unit": "%"},
      {"measurement": "pest or weed control at 500 g/ha", "setting": "[2]; [10]", "value": 90, "unit": "%"},
      {"measurement": "pest or weed control at 62 g/ha", "setting": "[3]; [11]", "value": 95, "unit": "%"},
      {"measurement": "pest or weed control at 125 g/ha", "setting": "[3]; [11]", "value": 100, "unit": "%"},
      {"measurement": "pest or weed control at 250 g/ha", "setting": "[3]; [12]", "value": 100, "unit": "%"},
      {"measurement": "pest or weed control at 500 g/ha", "setting": "[3]; [12]", "value": 100, "unit": "%"},
      {"measurement": "pest or weed control at 62 g/ha", "setting": "[3]; pre-emergence, Preemergence, scale 0 to 100, 0 no effect, 100 complete control, read-out: Plant response rating, Lambsquarters", "value": 95, "unit": "%"},
      {"measurement": "pest or weed control at 125 g/ha", "setting": "[3]; [13]", "value": 95, "unit": "%"},
      {"measurement": "pest or weed control at 250 g/ha", "setting": "[3]; [13]", "value": 100, "unit": "%"},
      {"measurement": "pest or weed control at 500 g/ha", "setting": "[3]; [13]", "value": 100, "unit": "%"},
      {"measurement": "pest or weed control at 62 g/ha", "setting": "[4]; [14]", "value": 0, "unit": "%"},
      {"measurement": "pest or weed control at 125 g/ha", "setting": "[4]; [14]", "value": 5, "unit": "%"},
      {"measurement": "pest or weed control at 250 g/ha", "setting": "[4]; [15]", "value": 40, "unit": "%"},
      {"measurement": "pest or weed control at 500 g/ha", "setting": "[4]; [15]", "value": 50, "unit": "%"},
      {"measurement": "pest or weed control at 62 g/ha", "setting": "[4]; pre-emergence, Preemergence, scale 0 to 100, 0 no effect, 100 complete control, read-out: Plant response rating, Goosegrass", "value": 0, "unit": "%"},
      {"measurement": "pest or weed control at 125 g/ha", "setting": "[4]; [16]", "value": 0, "unit": "%"},
      {"measurement": "pest or weed control at 250 g/ha", "setting": "[4]; [16]", "value": 0, "unit": "%"},
      {"measurement": "pest or weed control at 500 g/ha", "setting": "[4]; [16]", "value": 40, "unit": "%"},
      {"measurement": "pest or weed control at 62 g/ha", "setting": "[5]; [17]", "value": 0, "unit": "%"},
      {"measurement": "pest or weed control at 125 g/ha", "setting": "[5]; [17]", "value": 0, "unit": "%"},
      {"measurement": "pest or weed control at 250 g/ha", "setting": "[5]; [18]", "value": 0, "unit": "%"},
      {"measurement": "pest or weed control at 500 g/ha", "setting": "[5]; [18]", "value": 0, "unit": "%"},
      {"measurement": "pest or weed control at 62 g/ha", "setting": "[5]; pre-emergence, Preemergence, scale 0 to 100, 0 no effect, 100 complete control, read-out: Plant response rating, Nutsedge, Yellow", "value": 0, "unit": "%"},
      {"measurement": "pest or weed control at 125 g/ha", "setting": "[5]; [19]", "value": 0, "unit": "%"},
      {"measurement": "pest or weed control at 250 g/ha", "setting": "[5]; [19]", "value": 0, "unit": "%"},
      {"measurement": "pest or weed control at 500 g/ha", "setting": "[5]; [19]", "value": 0, "unit": "%"},
      {"measurement": "plant injury at 62 g/ha", "setting": "soybean (Glycine max); [20]", "value": 95, "unit": "%"},
      {"measurement": "plant injury at 125 g/ha", "setting": "soybean (Glycine max); [20]", "value": 100, "unit": "%"},
      {"measurement": "plant injury at 250 g/ha", "setting": "soybean (Glycine max); [21]", "value": 100, "unit": "%"},
      {"measurement": "plant injury at 500 g/ha", "setting": "soybean (Glycine max); [21]", "value": 100, "unit": "%"},
      {"measurement": "plant injury at 62 g/ha", "setting": "soybean (Glycine max); pre-emergence, Preemergence, scale 0 to 100, 0 no effect, 100 complete control, read-out: Plant response rating, Soybean", "value": 85, "unit": "%"},
      {"measurement": "plant injury at 125 g/ha", "setting": "soybean (Glycine max); [22]", "value": 90, "unit": "%"},
      {"measurement": "plant injury at 250 g/ha", "setting": "soybean (Glycine max); [22]", "value": 98, "unit": "%"},
      {"measurement": "plant injury at 500 g/ha", "setting": "soybean (Glycine max); [22]", "value": 100, "unit": "%"}
    ]}
  ]
}
